Tested on: platelets
Assay: Platelet quality, platelets in 100% plasma: 75 μM amotosalen + 340 nm (~6.4 or ~7.2 J/cm^2) or 150 μM + INT-100 (~3.6 J/cm^2, with CAD)
Format: cell-based

## Cc1oc2c(C)c3oc(=O)cc(C)c3cc2c1COCCN [S-59, 3-(2-aminoethoxymethyl)-2,5,9-trimethylfuro[3,2-g]chromen-7-one]
340/~6.4, D5
  Extent of Shape Change (ESC): 22.15
  Hypotonic Shock Response (HSR): 56.50
  Morphology (Kunicki score): 271.50
  P-selectin (CD62P): 51.70
  pCO2: 35.00 mmHg
  pH @ 22° C.: 7.15
  pH @ 37° C.: 6.92
  pO2: 59.75 mmHg
340/~6.4, D7
  Extent of Shape Change (ESC): 16.45
  Hypotonic Shock Response (HSR): 45.98
  Morphology (Kunicki score): 259.00
  P-selectin (CD62P): 67.65
  pCO2: 30.95 mmHg
  pH @ 22° C.: 6.95
  pH @ 37° C.: 6.72
  pO2: 61.80 mmHg
340/~6.4, Post-UVA
  pCO2: 43.60 mmHg
  pH @ 22° C.: 7.30
  pH @ 37° C.: 7.07
  pO2: 42.90 mmHg
340/~6.4, Pre-UVA
  Extent of Shape Change (ESC): 20.60
  Hypotonic Shock Response (HSR): 45.40
  Morphology (Kunicki score): 265.50
  P-selectin (CD62P): 31.95
  pCO2: 55.20 mmHg
  pH @ 22° C.: 7.29
  pH @ 37° C.: 7.06
  pO2: 37.60 mmHg
340/~7.2, D5
  Extent of Shape Change (ESC): 26.73
  Hypotonic Shock Response (HSR): 51.87
  Morphology (Kunicki score): 287.67
  P-selectin (CD62P): 45.00
  pCO2: 37.47 mmHg
  pH @ 22° C.: 7.11
  pH @ 37° C.: 6.88
  pO2: 49.33 mmHg
340/~7.2, D7
  Extent of Shape Change (ESC): 19.47
  Hypotonic Shock Response (HSR): 49.47
  Morphology (Kunicki score): 254.67
  P-selectin (CD62P): 56.93
  pCO2: 32.70 mmHg
  pH @ 22° C.: 6.94
  pH @ 37° C.: 6.72
  pO2: 56.07 mmHg
340/~7.2, Post-UVA
  pCO2: 47.23 mmHg
  pH @ 22° C.: 7.32
  pH @ 37° C.: 7.09
  pO2: 32.93 mmHg
340/~7.2, Pre-UVA
  Extent of Shape Change (ESC): 23.50
  Hypotonic Shock Response (HSR): 49.67
  Morphology (Kunicki score): 279.33
  P-selectin (CD62P): 27.77
  pCO2: 54.43 mmHg
  pH @ 22° C.: 7.31
  pH @ 37° C.: 7.08
  pO2: 31.77 mmHg
INT-100, D5
  Extent of Shape Change (ESC): 25.20
  Hypotonic Shock Response (HSR): 55.10
  Morphology (Kunicki score): 265.67
  P-selectin (CD62P): 39.07
  pCO2: 31.83 mmHg
  pH @ 22° C.: 7.16
  pH @ 37° C.: 6.93
  pO2: 69.77 mmHg
INT-100, D7
  Extent of Shape Change (ESC): 19.82
  Hypotonic Shock Response (HSR): 46.00
  Morphology (Kunicki score): 274.67
  P-selectin (CD62P): 58.77
  pCO2: 28.47 mmHg
  pH @ 22° C.: 6.96
  pH @ 37° C.: 6.74
  pO2: 70.37 mmHg
INT-100, Post-UVA
  pCO2: 54.60 mmHg
  pH @ 22° C.: 7.17
  pH @ 37° C.: 6.94
  pO2: 62.87 mmHg
INT-100, Pre-UVA
  Extent of Shape Change (ESC): 23.50
  Hypotonic Shock Response (HSR): 49.67
  Morphology (Kunicki score): 279.33
  P-selectin (CD62P): 27.77
  pCO2: 54.43 mmHg
  pH @ 22° C.: 7.31
  pH @ 37° C.: 7.08
  pO2: 31.77 mmHg
